Test results from patent US10336762B2 (priority 2017, dated 2019).
Where two headings read alike, the source gives them in different places.

Experiments:
IRAK4 enzyme = IRAK4 enzyme (Homo sapiens (Human), UniProt Q9NWZ3); assay: biochemical; type: biochemical; settings: IRAK4 enzyme, 500 μM ATP
TNFα = assay: cells; type: cell-based, human; settings: LPS-stimulated human monocytes, read-out: EC50 TNF
[1] = Homo sapiens, Monocyte, TNFα content
[2] = Homo sapiens, Monocyte, TNFα by TR-FRET

Chain of IRAK4 enzyme (Q9NWZ3 whole entry): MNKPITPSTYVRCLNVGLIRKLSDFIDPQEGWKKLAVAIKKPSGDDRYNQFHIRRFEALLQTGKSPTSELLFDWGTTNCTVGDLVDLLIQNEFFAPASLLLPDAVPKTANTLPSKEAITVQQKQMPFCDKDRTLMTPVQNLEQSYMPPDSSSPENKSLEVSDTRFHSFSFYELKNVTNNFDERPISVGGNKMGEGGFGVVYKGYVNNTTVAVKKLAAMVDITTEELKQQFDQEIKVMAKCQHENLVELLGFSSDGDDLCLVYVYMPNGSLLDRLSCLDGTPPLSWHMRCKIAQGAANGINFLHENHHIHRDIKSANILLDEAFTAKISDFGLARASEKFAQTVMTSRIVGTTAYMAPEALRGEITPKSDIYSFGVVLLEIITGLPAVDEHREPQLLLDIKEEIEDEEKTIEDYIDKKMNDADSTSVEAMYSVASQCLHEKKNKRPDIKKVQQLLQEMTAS

Row | SMILES | IC50 (IRAK4 enzyme; TR-FRET) [nM] | EC50 (TNFα; [1]) [nM] | IC50 (IRAK4 enzyme; TR-FRET (HTRF)) [nM] | EC50 (TNFα; [2]) [nM] | EC50 (TNFα; TNFα content) [nM]
1 | CN(C)C1CCC(NC(=O)c2cnc(-c3ccc4cc(C#N)cnn34)cc2N[C@H]2CCC[C@@H](O)C2)CC1 (stereo partly drawn) [Example 366, 6-(3-cyanopyrrolo[1,2-b]pyridazin-7-yl)-N-((1r,4S)-4-(dimethylamino)cyclohexyl)-4-(((1S,3R)-3-hydroxycyclohexyl)amino) nicotinamide] | 1 | 162 |  |  | 
2 | COCCNC(=O)CNC(=O)c1cnc(-c2ccc3cc(C#N)cnn23)cc1NC12CCC(O)(CC1)CC2 [Example 786, 6-(3-cyanopyrrolo[1,2-b]pyridazin-7-yl)-4-((4-hydroxybicyclo[2.2.2]octan-1-yl)amino)-N-(2-((2-methoxyethyl)amino)-2-oxoethyl)nicotinamide] |  | 323 | 2 |  | 
3 | CCC(=O)NC[C@H]1C[C@H](Nc2cc(-c3ccc4cc(C#N)cnn34)ncc2C(=O)NC[C@@H](F)C(C)(C)O)C1 [Example 538, 6-(3-cyanopyrrolo[1,2-b]pyridazin-7-yl)-N-((R)-2-fluoro-3-hydroxy-3-methylbutyl)-4-(((1r,3R)-3-(propionamidomethyl)cyclobutyl)amino)nicotin-amide] |  | 50 | < 1 |  | 
4 | CC(=O)NC1CCN(c2ccc(Nc3cc(-c4ccc5cc(C#N)cnn45)ncc3C(=O)NC[C@@H](F)C(C)(C)O)cn2)CC1 [Example 880, (R)-4-((6-(4-acetamido-piperidin-1-yl)pyridin-3-yl)amino)-6-(3-cyano-pyrrolo[1,2-b]pyridazin-7-yl)-N-(2-fluoro-3-hydroxy-3-methylbutyl) nicotinamide] | < 1 |  |  | 58 | 
5 | CN1CCOc2cc(Nc3cc(-c4ccc5cc(C#N)cnn45)ncc3C(=O)N[C@H]3CC[C@H](NC(=O)N4CCOCC4)CC3)ccc21 [Example 860, N-((1r,4r)-4-(6-(3-cyano-pyrrolo[1,2-b]pyridazin-7-yl)-4-((4-methyl-3,4-dihydro-2H-benzo[b][1,4]oxazin-7-yl)amino)nicotin-amido)cyclohexyl) morpholine-4-carboxamide] | 2 |  |  | 31 | 
6 | CC(C)(O)[C@H](F)CNC(=O)c1cnc(-c2ccc3cc(C#N)cnn23)cc1NC1C2CC1CN(S(C)(=O)=O)C2 (stereo partly drawn) [Example 30, 6-(3-cyanopyrrolo[1,2-b]pyridazin-7-yl)-N-((R)-2-fluoro-3-hydroxy-3-methyl-butyl)-4-((3-(methylsulfonyl)-3-azabicyclo[3.1.1]heptan-6-yl)amino)nicotinamide] | 3 | 732 |  |  | 
7 | CC(C)(O)[C@H](F)CNC(=O)c1cnc(-c2ccc3cc(C#N)cnn23)cc1NC1CCC2(CCC(=O)N2)CC1 (stereo partly drawn) [Example 832, 6-(3-cyanopyrrolo[1,2-b]pyridazin-7-yl)-N-((R)-2-fluoro-3-hydroxy-3-methylbutyl)-4-(((5R,8r)-2-oxo-1-azaspiro[4.5]decan-8-yl)amino) nicotinamide] | 1 |  |  | 132 | 
8 | CC(C)(O)[C@H](F)CNC(=O)c1cnc(-c2ccc3cc(C#N)cnn23)cc1NC1C2CNCC1C2 (single isomer, unassigned) [Example 26] | 3 |  |  |  | 182
9 | CNC(=O)c1cnc(-c2ccc3cc(C#N)cnn23)cc1N[C@H]1CCC[C@@H](O)C1 [Example 512, 6-(3-cyanopyrrolo[1,2-b]pyridazin-7-yl)-4-(((1S,3R)-3-hydroxy-cyclohexyl)amino)-N-methylnicotinamide] |  | 98 | 3 |  | 
10 | CC1(Nc2cc(-c3ccc4cc(C#N)cnn34)ncc2C(=O)NC[C@@H](F)C(C)(C)O)CC1 [Example 118, (R)-6-(3-cyanopyrrolo[1,2-b]pyridazin-7-yl)-N-(2-fluoro-3-hydroxy-3-methylbutyl)-4-((1-methylcyclopropyl)amino) nicotinamide] | < 1 | 25 |  |  | 
11 | CC(C)(O)[C@H](F)CNC(=O)c1cnc(-c2ccc3cc(C#N)cnn23)cc1N[C@H]1CC[C@@H](NC(=O)C(F)(F)F)CC1 [Example 319, 6-(3-cyanopyrrolo[1,2-b]pyridazin-7-yl)-N-((R)-2-fluoro-3-hydroxy-3-methyl-butyl)-4-(((1s,4S)-4-(2,2,2-trifluoroacetamido)cyclo-hexyl)amino)nicotinamide] | 19 | 2220 |  |  | 
12 | N#Cc1cnn2c(-c3cc(N[C@H]4CCC[C@@H](O)C4)c(C(=O)N[C@H]4CC[C@H](NC(=O)C5CC5)CC4)cn3)ccc2c1 [Example 527, 6-(3-cyanopyrrolo[1,2-b]pyridazin-7-yl)-N-((1r,4S)-4-(cyclopropane-carboxamido)cyclohexyl)-4-(((1S,3R)-3-hydroxycyclo-hexyl)amino)nicotinamide] |  | 16 | < 1 |  | 
13 | CC(C)(O)[C@H](F)CNC(=O)c1cnc(-c2ccc3cc(C#N)cnn23)cc1N[C@@H]1CCC[C@H](O)C1 [Example 65, 6-(3-cyanopyrrolo[1,2-b]pyridazin-7-yl)-N-((R)-2-fluoro-3-hydroxy-3-methylbutyl)-4-(((1R,3S)-3-hydroxycyclohexyl)amino) nicotinamide] | 2 | 149 |  |  | 
14 | CC(C)(O)[C@H](F)CNC(=O)c1cnc(-c2ccc3cc(C#N)cnn23)cc1N[C@H]1C[C@H](CNC(=O)C2CC2)C1 [Example 534, 6-(3-cyanopyrrolo[1,2-b]pyridazin-7-yl)-4-(((1r,3R)-3-(cyclopropane-carboxamidomethyl)cyclo-butyl)amino)-N-((R)-2-fluoro-3-hydroxy-3-methyl-butyl)nicotinamide] |  | 26 | < 1 |  | 
15 | CC(C)(O)[C@H](F)CNC(=O)c1cnc(-c2ccc3cc(C#N)cnn23)cc1N[C@H]1C[C@@H]2CC[C@H]1C2 [Example 101, 4-(((1S,2S,4R)-bicyclo[2.2.1]heptan-2-yl)amino)-6-(3-cyanopyrrolo[1,2-b]pyridazin-7-yl)-N-((R)-2-fluoro-3-hydroxy-3-methylbutyl) nicotinamide] | < 1 | 82 |  |  | 
16 | CC(C)(C)OC(=O)NC[C@H]1C[C@H](Nc2cc(-c3ccc4cc(C#N)cnn34)ncc2C(=O)NC[C@@H](F)C(C)(C)O)C1 [Example 549, tert-butyl (((1R,3r)-3-((2-(3-cyanopyrrolo[1,2-b]pyridazin-7-yl)-5-(((R)-2-fluoro-3-hydroxy-3-methylbutyl)carbamoyl)pyridin-4-yl)amino)cyclobutyl)methyl)carbamate] |  | 149 | 2 |  | 
17 | CC(C)Nc1cc(-c2ccc3cc(C(N)=O)cnn23)ncc1C(=O)NCC1CCS(=O)(=O)C1 (centres unmarked) [Example 9, 7-(5-(((1,1-dioxidotetrahydrothiophen-3-yl)methyl)carbamoyl)-4-(isopropylamino)pyridin-2-yl)pyrrolo[1,2-b]pyridazine-3-carboxamide] | 16 | 5100 |  |  | 
18 | COc1ccc(Nc2cc(-c3ccc4cc(C#N)cnn34)ncc2C(=O)NC[C@@H](F)C(C)(C)O)nc1 [Example 667, (R)-6-(3-cyanopyrrolo[1,2-b]pyridazin-7-yl)-N-(2-fluoro-3-hydroxy-3-methylbutyl)-4-((5-methoxypyridin-2-yl)amino)nicotinamide] |  | 45 | < 1 |  | 
19 | CC(C)C(=O)NC[C@H]1C[C@H](Nc2cc(-c3ccc4cc(C#N)cnn34)ncc2C(=O)NC[C@@H](F)C(C)(C)O)C1 [Example 938, 6-(3-cyanopyrrolo[1,2-b]pyridazin-7-yl)-N-((R)-2-fluoro-3-hydroxy-3-methylbutyl)-4-(((1r,3R)-3-(isobutyramidomethyl)cyclobutyl)amino) nicotinamide] | 1 |  |  | 68 | 
